Results published in US6562355B1, “Comixture of dextran sulfate/escin for treating skin redness/edema and/or sensitive skin” (Societe L'Oreal S.A., priority 1999, dated 2003).
Where “and” joins values, the source holds several entries; their conditions need not be identical. Equal values may be shown once.

Columns and labels:
[1] = tested on: fragments of normal human skin kept alive (eyelid); test: Anti-edema and vasodilation-inhibitory effect in human skin kept alive after induction with substance P/TNFα/arachidonic acid (cocktail A); semi-quantitative histological scores; type: cell-based; details: skin + cocktail A (5 μM substance P, arachidonic acid 40 mg/ml, TNFα 50 ng/ml) 2 hours, 37° C., topical, escin 0.075%, dextran sulfate 0.20%, 3 donors; for Vasodilation (histological score of dilation of the capillaries): score 0 (no dilation) to 4 (very large dilation), cocktail A alone 2.2, control skin 0.37; for Edema (histological score): score 0 (no edema) to 4 (very considerable edema), cocktail A alone 2.8, control skin 0.62
Description: The goal of this study was to visualize the anti-edema effect and the vasodilation-inhibitory effect of intimate admixture of dextran sulfate and escin, in a model of skin kept alive (eyelid) after the induction of edema and vasodilation by a neuromediator (substance P)/α-type tumor necrosis factor (TNFα)/arachidonic acid combination.
Fragments of normal human skin from 3 different donors (plastic surgery), mechanically freed of the subcutaneous fat and the inner layer of the dermis, were each placed on a culture insert consisting of a porous membrane (pores 12 μm in diameter) (Costar), the dermal portion of the skin fragment being placed in contact with the porous membrane. The assembly thus prepared was positioned over the wells of a Costar brand 12-well culture plate and maintained for 24 hours at 37° C. in an incubator under a humidified atmosphere containing 5% CO2.
DMEM culture medium (Gibco-BRL) containing 100 U/ml of penicillin and 100 μg/ml of streptomycin, 200 μg/ml of L-glutamine and 0. 1% fetal calf serum (D.A.P., France), was added to the bottom of the wells such that the liquid reached the porous membrane without passing it. Thus mounted, the skin was in contact via its lower face surface through the porous membrane with the culture medium, transport taking place by slow diffusion between the two compartments.
The edema and the vasodilation were produced experimentally by placing on the surface of the skin a mixture in a culture medium consisting of 25 μl of a neuromediator (5 μM substance P), arachidonic acid (25 μl of a solution at a concentration of 40 mg/ml in glycerol) and TNFα (50 ng/ml), hereinafter referred to as “cocktail A”. These substances were maintained in contact with the skin for 2 hours.
The test products were applied topically onto the skin fragments during the induction of the edema and the vasodilation.
The escin, at a final concentration of 0.075%, was dissolved in water.
The dextran sulfate, at a final concentration of 0.20%, was dissolved in propylene glycol.
The temperature was maintained at 37° C. throughout the test period.
The histological analyses were carried out according to the conventional techniques known to this art, without modification of the protocols.
After treatment, the skin fragments were removed and fixed in Bouin liquid and included in paraffin for the histological analyses.
After staining with hemalun-eosin, the two (2) criteria, edema and dilation of the capillaries, were evaluated by means of semi-quantitative histological scores.
The histological evaluation was carried out in the superficial dermis and in the top part of the middle dermis on the same number of fields four (4) fields at 10× magnification). […]

[2] = cited from earlier work
[3] = solutions of pH ranging from 4 to 10 at room temperature; cited from earlier work

Row | Substance | Vasodilation (histological score of dilation of the capillaries) [1] | Edema (histological score) [1] | solubility in water and saline solutions [2] | stability in solutions [3]
1 | dextran sulfate | 1.8 and 1.8 ± 1.04 | 2.1 and 2.1 ± 1.04 | good | high
2 | escin [reference compound] | 1.5 and 1.5 ± 0.5 | 1.16 and 1.16 ± 0.77 | – | –
